These compounds were tested against T1, human PAH with the R408W mutation (Homo sapiens, UniProt P00439, R408W) (assay: Cell Based Phenylalanine Flux Assay). Details: A375 cells expressing human R408W PAH; 24 hrs compound incubation; 13C-Tyrosine by LC-MS; average where tested multiple times; read-out: AC50.
T1 construct: expressed in transfected cells
T1 sequence (P00439 1-452 R408W): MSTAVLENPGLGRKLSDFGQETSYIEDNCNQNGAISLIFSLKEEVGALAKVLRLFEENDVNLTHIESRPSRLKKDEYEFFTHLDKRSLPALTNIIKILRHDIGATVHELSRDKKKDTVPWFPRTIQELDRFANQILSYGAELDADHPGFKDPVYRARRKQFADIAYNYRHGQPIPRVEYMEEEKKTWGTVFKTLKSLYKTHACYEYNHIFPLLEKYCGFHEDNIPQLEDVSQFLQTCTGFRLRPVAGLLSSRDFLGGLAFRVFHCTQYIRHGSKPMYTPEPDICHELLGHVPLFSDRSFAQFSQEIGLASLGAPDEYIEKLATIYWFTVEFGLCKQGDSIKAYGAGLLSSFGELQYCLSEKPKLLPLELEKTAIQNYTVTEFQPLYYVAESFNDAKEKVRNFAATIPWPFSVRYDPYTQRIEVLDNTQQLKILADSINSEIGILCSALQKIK
Parameters: scale not given here
`Cc1nc(C)c(C(=O)N2CCc3[nH]cnc3[C@@H]2c2nc3c(F)cccc3s2)o1` [Example 1322, (R)-(2,4-dimethyloxazol-5-yl)(4-(4-fluorobenzo[d]thiazol-2-yl)-6,7-dihydro-1H-imidazo[4,5-c]pyridin-5(4H)-yl)methanone] was tested, and the AC50 was over 5000 nM.
`O=C(c1ocnc1C(F)F)N1CCc2[nH]cnc2[C@@H]1c1nc2ccccc2s1` [Example 1540, (R)-(4-(benzo[d]thiazol-2-yl)-6,7-dihydro-1H-imidazo[4,5-c]pyridin-5(4H)-yl)(4-(difluoromethyl)oxazol-5-yl)methanone] gave an AC50 of under 500 nM.
`O=C(c1cnn2cc(CN3CCOCC3)ccc12)N1CCc2[nH]cnc2[C@@H]1c1nc2ccccc2s1` [Example 2156, (R)-(4-(benzo[d]thiazol-2-yl)-6,7-dihydro-1H-imidazo[4,5-c]pyridin-5(4H)-yl)(6-(morpholinomethyl)pyrazolo[1,5-a]pyridin-3-yl)methanone] showed an AC50 of over 5000 nM.
`Cn1cc(-c2nnc(C(=O)N3CCc4[nH]cnc4[C@@H]3c3nc4c(F)cccc4s3)o2)cn1` [Example 1727, (R)-(4-(4-fluorobenzo[d]thiazol-2-yl)-6,7-dihydro-1H-imidazo[4,5-c]pyridin-5(4H)-yl)(5-(1-methyl-1H-pyrazol-4-yl)-1,3,4-oxadiazol-2-yl)methanone] showed an AC50 of 1000 to 5000 nM.
Compound `O=C(c1ncn2ccccc12)N1CCc2[nH]cnc2[C@H]1c1nc2cccc(F)c2s1` [Example 1268, (S)-(4-(7-fluorobenzo[d]thiazol-2-yl)-6,7-dihydro-1H-imidazo[4,5-c]pyridin-5(4H)-yl)(imidazo[1,5-a]pyridin-1-yl)methanone] has an AC50 of under 500 nM.
In the case of `N#Cc1ccn2ncc(C(=O)N3CCc4[nH]cnc4[C@@H]3c3nc4ccccc4s3)c2c1` [Example 1086, (R)-3-(4-(benzo[d]thiazol-2-yl)-4,5,6,7-tetrahydro-1H-imidazo[4,5-c]pyridine-5-carbonyl)pyrazolo[1,5-a]pyridine-5-carbonitrile], the AC50 is reported as 1000 to 5000 nM.
Work on `CC(C)(C)c1ncc(C(=O)N2CCc3[nH]cnc3[C@@H]2c2nc3c(F)cccc3s2)s1` [Example 1426, (R)-(2-(tert-butyl)thiazol-5-yl)(4-(4-fluorobenzo[d]thiazol-2-yl)-6,7-dihydro-1H-imidazo[4,5-c]pyridin-5(4H)-yl)methanone] yielded an AC50 of 500 to 1000 nM.
With `CC(C)(CO)c1nc(C(F)F)c(C(=O)N2CCc3[nH]cnc3[C@@H]2c2nc3c(F)cccc3s2)o1` [Example 2072, (R)-(4-(difluoromethyl)-2-(1-hydroxy-2-methylpropan-2-yl)oxazol-5-yl)(4-(4-fluorobenzo[d]thiazol-2-yl)-6,7-dihydro-1H-imidazo[4,5-c]pyridin-5(4H)-yl)methanone] the AC50 was 500 to 1000 nM.
With `COCc1nc(Br)c(C(=O)N2CCc3[nH]cnc3[C@@H]2c2nc3c(F)cccc3s2)o1` [Example 1775, (R)-(4-bromo-2-(methoxymethyl)oxazol-5-yl)(4-(4-fluorobenzo[d]thiazol-2-yl)-6,7-dihydro-1H-imidazo[4,5-c]pyridin-5(4H)-yl)methanone] the AC50 was 500 to 1000 nM.
Work on `O=C(c1cn(CC(F)(F)F)nc1C(F)F)N1CCc2[nH]cnc2[C@@H]1c1nc2c(F)cccc2s1` [Example 1988, (R)-(3-(difluoromethyl)-1-(2,2,2-trifluoroethyl)-1H-pyrazol-4-yl)(4-(4-fluorobenzo[d]thiazol-2-yl)-6,7-dihydro-1H-imidazo[4,5-c]pyridin-5(4H)-yl)methanone] yielded an AC50 of 1000 to 5000 nM.
With `O=C(c1ncc(Cl)s1)N1CCc2[nH]cnc2[C@H]1c1nc2ccccc2[nH]1` [Example 921, (S)-(4-(1H-benzo[d]imidazol-2-yl)-6,7-dihydro-1H-imidazo[4,5-c]pyridin-5(4H)-yl)(5-chlorothiazol-2-yl)methanone] the AC50 was 500 to 1000 nM.
Compound `C[C@H]1CN(C(=O)c2nnc(-c3ccc(F)cn3)o2)[C@H](c2nc3ccccc3s2)c2nc[nH]c21` [Example 1756, ((4S,7S)-4-(benzo[d]thiazol-2-yl)-7-methyl-6,7-dihydro-1H-imidazo[4,5-c]pyridin-5(4H)-yl)(5-(5-fluoropyridin-2-yl)-1,3,4-oxadiazol-2-yl)methanone] has an AC50 of 1000 to 5000 nM.
`Cn1nc(C2CCC2)cc1C(=O)N1CCc2[nH]cnc2[C@@H]1c1nc2c(F)cccc2s1` [Example 1854, (R)-(3-cyclobutyl-1-methyl-1H-pyrazol-5-yl)(4-(4-fluorobenzo[d]thiazol-2-yl)-6,7-dihydro-1H-imidazo[4,5-c]pyridin-5(4H)-yl)methanone] showed an AC50 of 1000 to 5000 nM.
Compound `Cc1nc(C)c(C(=O)N2CCc3[nH]cnc3[C@H]2c2nc3c(F)cccc3s2)o1` [Example 1321] has an AC50 of under 500 nM.
In the case of `Cc1c(-c2nnc(C(=O)N3CCc4[nH]cnc4[C@@H]3c3nc4ccccc4s3)o2)cnn1C` [Example 1846, (R)-(4-(benzo[d]thiazol-2-yl)-6,7-dihydro-1H-imidazo[4,5-c]pyridin-5(4H)-yl)(5-(1,5-dimethyl-1H-pyrazol-4-yl)-1,3,4-oxadiazol-2-yl)methanone], the AC50 is reported as 1000 to 5000 nM.
`CC(C)(F)c1ncc(C(=O)N2CCc3[nH]cnc3[C@@H]2c2nc3c(F)cccc3s2)s1` [Example 1485, (R)-(4-(4-fluorobenzo[d]thiazol-2-yl)-6,7-dihydro-1H-imidazo[4,5-c]pyridin-5(4H)-yl)(2-(2-fluoropropan-2-yl)thiazol-5-yl)methanone] showed an AC50 of 500 to 1000 nM.
`Cc1cnn(C)c1-c1nnc(C(=O)N2CCc3[nH]cnc3[C@@H]2c2nc3ccccc3s2)o1` [Example 1948, (R)-(4-(benzo[d]thiazol-2-yl)-6,7-dihydro-1H-imidazo[4,5-c]pyridin-5(4H)-yl)(5-(1,4-dimethyl-1H-pyrazol-5-yl)-1,3,4-oxadiazol-2-yl)methanone] gave an AC50 of 1000 to 5000 nM.
Compound `Cc1ncoc1C(=O)N1CC2(CC2)c2[nH]cnc2[C@H]1c1nc2ccccc2s1` [Example 2152, (S)-(4′-(benzo[d]thiazol-2-yl)spiro[cyclopropane-1,7′-imidazo[4,5-c]pyridin]-5′(1′H,4′H,6′H)-yl)(4-methyloxazol-5-yl)methanone] has an AC50 of 500 to 1000 nM.
With `Cn1cc(C(=O)N2CCc3[nH]cnc3[C@H]2c2nc3ccccc3s2)c(C(F)F)n1` [Example 1821] the AC50 was under 500 nM.
For `Cn1cc(C(=O)N2CCc3[nH]cnc3[C@@H]2c2nc3ccccc3s2)c(C(F)F)n1` [Example 1822, (R)-(4-(benzo[d]thiazol-2-yl)-6,7-dihydro-1H-imidazo[4,5-c]pyridin-5(4H)-yl)(3-(difluoromethyl)-1-methyl-1H-pyrazol-4-yl)methanone], the AC50 was 1000 to 5000 nM.
`O=C(c1nncs1)N1CCc2[nH]cnc2[C@@H]1c1nc2ccccc2s1` [Example 1067, (R)-(4-(benzo[d]thiazol-2-yl)-6,7-dihydro-1H-imidazo[4,5-c]pyridin-5(4H)-yl)(1,3,4-thiadiazol-2-yl)methanone] showed an AC50 of over 5000 nM.
`O=C(c1ocnc1C(F)(F)F)N1CCc2[nH]cnc2[C@H]1c1nc2ccccc2s1` [Example 1325] showed an AC50 of under 500 nM.
Compound `N#Cc1ccn2ncc(C(=O)N3CCc4[nH]cnc4[C@H]3c3nc4c(F)cccc4s3)c2c1` [Example 1249, (S)-3-(4-(4-fluorobenzo[d]thiazol-2-yl)-4,5,6,7-tetrahydro-1H-imidazo[4,5-c]pyridine-5-carbonyl)pyrazolo[1,5-a]pyridine-5-carbonitrile] has an AC50 of 500 to 1000 nM.
Compound `O=C(c1oc(-c2ccccn2)nc1C(F)F)N1CCc2[nH]cnc2[C@@H]1c1nc2c(F)cccc2s1` [Example 1797, (R)-(4-(difluoromethyl)-2-(pyridin-2-yl)oxazol-5-yl)(4-(4-fluorobenzo[d]thiazol-2-yl)-6,7-dihydro-1H-imidazo[4,5-c]pyridin-5(4H)-yl)methanone] has an AC50 of under 500 nM.
`N#Cc1nc(N2CCC(F)CC2)oc1C(=O)N1CCc2[nH]cnc2[C@H]1c1nc2ccccc2s1` [Example 1651, (S)-5-(4-(benzo[d]thiazol-2-yl)-4,5,6,7-tetrahydro-1H-imidazo[4,5-c]pyridine-5-carbonyl)-2-(4-fluoropiperidin-1-yl)oxazole-4-carbonitrile] gave an AC50 of 500 to 1000 nM.
`O=C(CCc1nccs1)N1CCc2[nH]cnc2[C@H]1c1nc(-c2ccccc2)cs1` [Example 2143] gave an AC50 of 1000 to 5000 nM.

Same assay, conditions: A375 cells expressing human R408W PAH; 24 hrs with compound; 13C-Tyrosine by LC-MS; average where tested multiple times
`CN(C)CCc1nc(C#N)c(C(=O)N2CCc3[nH]cnc3C2c2nc3ccccc3s2)o1` (stereo not drawn) was tested, and the AC50 was “E, E”.

Same assay, conditions: A375 cells expressing human R408W PAH; 24 hrs with compound; 13C-Tyrosine by LC-MS; average where tested multiple times; read-out: AC50
In the case of `O=C(c1cnc(COc2ccccc2)s1)N1CCc2[nH]cnc2C1c1nc2ccccc2s1` (stereo not drawn), the AC50 is reported as 1000 to 5000 nM.
`O=C(c1ccn(-c2ccccn2)n1)N1CCc2[nH]cnc2C1c1nc2c(F)cccc2s1` (stereo not drawn) gave an AC50 of over 5000 nM.
In the case of `CC(C)(O)c1cc(C(=O)N2CCc3[nH]cnc3C2c2nc3c(F)cccc3s2)sn1` (stereo not drawn), the AC50 is reported as 1000 to 5000 nM.
Work on `O=C(c1oc(-c2ccccn2)nc1C1CC1)N1CCCc2[nH]cnc2C1c1nc2ccccc2[nH]1` (stereo not drawn) yielded an AC50 of over 5000 nM.
Compound `Cc1nc(-c2ccccn2)c(C(=O)N2CCc3[nH]cnc3C2c2nc3ccccc3s2)o1` (stereo not drawn) has an AC50 of over 5000 nM.
`O=C(C1CN(c2ccc(Cl)cc2)C1)N1CCc2[nH]cnc2C1c1nc2ccccc2s1` (stereo not drawn) showed an AC50 of 1000 to 5000 nM.
For `O=C(C1CC1(F)F)N1CCc2[nH]cnc2C1c1nc2c(F)cccc2s1` (stereo not drawn), the AC50 was 1000 to 5000 nM.
For `O=C(c1ccno1)N1CCc2[nH]cnc2C1c1nc2cccc(F)c2s1` (stereo not drawn), the AC50 was 1000 to 5000 nM.
With `Cc1nc(C(=O)N2CCc3[nH]cnc3C2c2nc3ccccc3s2)no1` (stereo not drawn) the AC50 was over 5000 nM.
Work on `O=C(c1ccsn1)N1CCc2[nH]cnc2C1c1nc2ccccc2s1` (stereo not drawn) yielded an AC50 of 1000 to 5000 nM.
In the case of `Cc1nnc(CCC(=O)N2CCc3[nH]cnc3C2c2nc3cccc(F)c3s2)s1` (stereo not drawn), the AC50 is reported as 1000 to 5000 nM.
`O=C(c1nccs1)N1CCc2[nH]cnc2C1c1nc2cc(F)ccc2s1` (stereo not drawn) showed an AC50 of over 5000 nM.

Source: patent US20250171438A1 (Agios Pharmaceuticals, Inc., priority 2022, published 2025)
